ChEMBL document CHEMBL3739364, “Synthesis and biological evaluation of novel 5-(hydroxamic acid)methyl oxazolidinone derivatives” (Eur J Med Chem, 2015)
Values after ≈ are worked out from the molar mass of the structure shown.

Assays:
[1] = target: T1, Amine oxidase [flavin-containing] B (Homo sapiens, UniProt P27338); assay: Inhibition of human recombinant MAO-B using p-tyramine as substrate after 15 mins by UV/Vis spectrophotometer analysis
T1 sequence (P27338 whole entry): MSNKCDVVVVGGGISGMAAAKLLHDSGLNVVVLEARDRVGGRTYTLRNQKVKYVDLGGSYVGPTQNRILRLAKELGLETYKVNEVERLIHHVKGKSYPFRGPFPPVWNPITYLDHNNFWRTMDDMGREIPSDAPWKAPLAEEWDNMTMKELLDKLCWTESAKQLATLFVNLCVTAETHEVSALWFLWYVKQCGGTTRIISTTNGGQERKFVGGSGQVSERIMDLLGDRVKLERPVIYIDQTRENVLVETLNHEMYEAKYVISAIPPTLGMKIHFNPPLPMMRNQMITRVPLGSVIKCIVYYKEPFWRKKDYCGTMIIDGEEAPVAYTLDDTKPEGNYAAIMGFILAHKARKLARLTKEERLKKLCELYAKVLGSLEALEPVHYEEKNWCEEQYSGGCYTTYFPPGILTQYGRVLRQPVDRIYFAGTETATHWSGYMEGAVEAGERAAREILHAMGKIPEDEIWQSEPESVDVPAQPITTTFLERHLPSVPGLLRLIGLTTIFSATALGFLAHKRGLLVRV

[2] = target: T2, MAO-B (amine oxidase [flavin-containing] B) (Homo sapiens, UniProt P27338); assay: Inhibition of human recombinant MAO-B using p-tyramine as substrate at 50 to 200 uM measured up to 50 mins by ELISA screening analysis; settings: probe p-tyramine
T2 sequence (P27338 whole entry): T1 sequence (P27338 whole entry)

[3] = target: T3, Amine oxidase [flavin-containing] A (Homo sapiens, UniProt P21397); assay: Inhibition of human recombinant MAO-A using p-tyramine as substrate after 15 mins by UV/Vis spectrophotometer analysis
T3 sequence (P21397 whole entry): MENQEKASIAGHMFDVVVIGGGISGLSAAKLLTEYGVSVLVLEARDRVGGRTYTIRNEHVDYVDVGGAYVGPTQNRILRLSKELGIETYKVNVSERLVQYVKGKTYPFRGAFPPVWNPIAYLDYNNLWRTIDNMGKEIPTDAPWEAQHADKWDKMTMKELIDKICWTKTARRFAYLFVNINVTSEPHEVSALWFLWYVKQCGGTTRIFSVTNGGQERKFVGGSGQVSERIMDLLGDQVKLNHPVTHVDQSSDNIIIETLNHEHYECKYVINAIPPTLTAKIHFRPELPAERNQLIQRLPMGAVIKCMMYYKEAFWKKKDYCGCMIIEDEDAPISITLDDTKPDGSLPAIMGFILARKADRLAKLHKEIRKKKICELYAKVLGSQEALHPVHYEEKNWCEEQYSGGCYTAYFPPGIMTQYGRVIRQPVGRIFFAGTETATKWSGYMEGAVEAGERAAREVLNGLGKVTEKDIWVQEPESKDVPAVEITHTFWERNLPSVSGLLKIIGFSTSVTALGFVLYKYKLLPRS

Escherichia coli = assay: Antibacterial activity against Escherichia coli ATCC 25922; type: functional
Streptococcus pneumoniae = assay: Antibacterial activity against Streptococcus pneumoniae; type: functional
Homo sapiens = organism: Homo sapiens; assay: Selectivity ratio of IC50 for human recombinant MAO-A to IC50 for human recombinant MAO-B
Haemophilus influenzae = assay: Antibacterial activity against Haemophilus influenzae ATCC 49247; type: functional
[4] = target: T4, MAO-A (amine oxidase [flavin-containing] A) (Homo sapiens, UniProt P21397); assay: Inhibition of human recombinant MAO-A using p-tyramine as substrate at 50 to 200 uM measured up to 50 mins by ELISA screening analysis; settings: probe p-tyramine
T4 sequence (P21397 whole entry): T3 sequence (P21397 whole entry)

Staphylococcus aureus [5] = assay: Antibacterial activity against […] Staphylococcus aureus ATCC 25923; type: functional
[6] = system: Staphylococcus epidermidis; assay: Antibacterial activity against methicillin-sensitive Staphylococcus epidermidis ATCC 12228; type: functional
[7] = system: Mycobacterium tuberculosis; assay: Antimycobacterial activity against Mycobacterium tuberculosis H37Rv ATCC 27294; type: functional
Staphylococcus aureus [8] = assay: Antibacterial activity against […] Staphylococcus aureus ATCC 25923 after 18 hrs by broth dilution method; type: functional; settings: ATCC 25923, 18 h
[9] = system: Staphylococcus epidermidis; assay: Antibacterial activity against methicillin-sensitive Staphylococcus epidermidis ATCC 12228 after 18 hrs by broth dilution method; type: functional; settings: ATCC 12228, 18 h
[10] = target: T1, Amine oxidase [flavin-containing] B; assay: Reversible inhibition of human MAO-B
[11] = target: T3, Amine oxidase [flavin-containing] A; assay: Reversible inhibition of human MAO-A
[12] = system: Mycobacterium tuberculosis; assay: Antimycobacterial activity against Mycobacterium tuberculosis H37Rv; type: functional

| Structure (SMILES) | IC50 [1] | inhibition at 50 min [2] | IC50 [3] | MIC (Escherichia coli) | MIC (Streptococcus pneumoniae) | Ratio IC50 (Homo sapiens) | MIC (Haemophilus influenzae) | inhibition at 50 min [4] | MIC (Staphylococcus aureus [5]) | MIC [6] | MIC50 [7] | MIC90 [7] | MIC (Staphylococcus aureus [8]) | MIC [9] | IC50 [10] | IC50 [11] | MIC [12] |
| --- | --- | --- | --- | --- | --- | --- | --- | --- | --- | --- | --- | --- | --- | --- | --- | --- | --- |
| O=C1O[C@@H](CNO)CN1c1ccc(N2CCOCC2)c(F)c1 | 112 µM | ≥ 50% | 144 µM | > 32 µg/mL | > 32 µg/mL | 1.29 | > 32 µg/mL | ≥ 50% | > 32 µg/mL | > 32 µg/mL | – | – | – | – | – | – | – |
| CC(=O)N1CCN(c2ccc(N3C[C@H](CN(OC(=O)C4CC4)C(=O)C4CC4)OC3=O)cc2F)CC1 | – | – | – | > 32 µg/mL | > 32 µg/mL | – | > 32 µg/mL | < 50% | – | > 32 µg/mL | – | – | – | – | – | – | – |
| CC(=O)ON(C[C@H]1CN(c2ccc(N3CCN(C(C)=O)CC3)c(F)c2)C(=O)O1)C(C)=O | – | – | – | > 32 µg/mL | > 32 µg/mL | – | > 32 µg/mL | < 50% | – | > 32 µg/mL | – | – | – | – | – | – | – |
| CC(=O)N1CCN(c2ccc(N3C[C@H](CN(OC(=O)C(C)C)C(=O)C(C)C)OC3=O)cc2F)CC1 | – | < 50% | – | > 32 µg/mL | > 32 µg/mL | – | > 32 µg/mL | < 50% | – | > 32 µg/mL | – | – | – | – | – | – | – |
| CCC(=O)ON(C[C@H]1CN(c2ccc(N3CCN(C(C)=O)CC3)c(F)c2)C(=O)O1)C(=O)CC | – | – | – | > 32 µg/mL | > 32 µg/mL | – | > 32 µg/mL | < 50% | – | > 32 µg/mL | – | – | – | – | – | – | – |
| CC(=O)N(O)C[C@H]1CN(c2ccc(N3CCOCC3)c(F)c2)C(=O)O1 | – | < 50% | – | > 32 µg/mL | > 32 µg/mL | – | > 32 µg/mL | < 50% | – | – | 1.38 µg/mL (≈ 3.91 µM) | 4.6 µg/mL (≈ 13 µM) | > 32 µg/mL | 16 µg/mL (≈ 45.3 µM) | – | – | – |
| O=C(ON(C[C@H]1CN(c2ccc(N3CCOCC3)c(F)c2)C(=O)O1)C(=O)C1CC1)C1CC1 | – | < 50% | – | > 32 µg/mL | > 32 µg/mL | – | > 32 µg/mL | < 50% | – | > 32 µg/mL | – | – | – | – | – | – | – |
| CC(=O)NC[C@H]1CN(c2ccc(N3CCOCC3)c(F)c2)C(=O)O1 [LINEZOLID] | – | ≥ 50% | – | – | – | – | – | ≥ 50% | – | 2 µg/mL (≈ 5.93 µM) | – | – | – | – | 2.1 µM | 46 µM | – |
| CC(=O)N(O)C[C@H]1CN(c2ccc(N3CCN(C(C)=O)CC3)c(F)c2)C(=O)O1 | – | < 50% | – | > 32 µg/mL | > 32 µg/mL | – | > 32 µg/mL | < 50% | > 32 µg/mL | > 32 µg/mL | – | – | – | – | – | – | – |
| CC(C)C(=O)ON(C[C@H]1CN(c2ccc(N3CCOCC3)c(F)c2)C(=O)O1)C(=O)C(C)C | 108 µM | ≥ 50% | – | > 32 µg/mL | > 32 µg/mL | – | > 32 µg/mL | < 50% | – | > 32 µg/mL | – | – | – | – | – | – | – |
| CCC(=O)ON(C[C@H]1CN(c2ccc(N3CCOCC3)c(F)c2)C(=O)O1)C(=O)CC | 168 µM | ≥ 50% | – | > 32 µg/mL | > 32 µg/mL | – | > 32 µg/mL | < 50% | – | > 32 µg/mL | – | – | – | – | – | – | – |
| CC(=O)ON(C[C@H]1CN(c2ccc(N3CCOCC3)c(F)c2)C(=O)O1)C(C)=O | – | < 50% | – | > 32 µg/mL | > 32 µg/mL | – | > 32 µg/mL | < 50% | – | > 32 µg/mL | – | – | – | – | – | – | – |
| NC(=S)NC[C@H]1CN(c2ccc(C3CCCCC3=O)c(F)c2)C(=O)O1 (some centres not stated) | – | – | – | – | – | – | – | – | – | – | – | – | – | – | – | – | 0.06 µg/mL (≈ 0.164 µM) |
| Cn1nnc(-c2ccc(-c3ccc(N4C[C@H](CO)OC4=O)cc3F)cn2)n1 [TEDIZOLID] | – | – | – | – | – | – | – | – | – | – | – | – | – | – | 5.7 µM | 8.7 µM | – |
| CC(=O)N1CCN(c2ccc(N3C[C@H](CNO)OC3=O)cc2F)CC1.O=C(O)C(F)(F)F | – | – | 46.6 µM | > 32 µg/mL | > 32 µg/mL | – | > 32 µg/mL | ≥ 50% | > 32 µg/mL | > 32 µg/mL | – | – | – | – | – | – | – |
| O=C(C1CC1)N(O)C[C@H]1CN(c2ccc(N3CCOCC3)c(F)c2)C(=O)O1 | 90.9 µM | ≥ 50% | 112 µM | > 32 µg/mL | > 32 µg/mL | 1.23 | > 32 µg/mL | ≥ 50% | > 32 µg/mL | > 32 µg/mL | – | – | – | – | – | – | – |
| CCC(=O)N(O)C[C@H]1CN(c2ccc(N3CCOCC3)c(F)c2)C(=O)O1 | 100 µM | ≥ 50% | 115 µM | > 32 µg/mL | > 32 µg/mL | 1.15 | > 32 µg/mL | ≥ 50% | > 32 µg/mL | > 32 µg/mL | – | – | – | – | – | – | – |
| CC(C)C(=O)N(O)C[C@H]1CN(c2ccc(N3CCOCC3)c(F)c2)C(=O)O1 | 107 µM | ≥ 50% | – | > 32 µg/mL | > 32 µg/mL | – | > 32 µg/mL | < 50% | > 32 µg/mL | > 32 µg/mL | – | – | – | – | – | – | – |
| CCC(=O)N(O)C[C@H]1CN(c2ccc(N3CCN(C(C)=O)CC3)c(F)c2)C(=O)O1 | – | – | – | > 32 µg/mL | > 32 µg/mL | – | > 32 µg/mL | < 50% | > 32 µg/mL | > 32 µg/mL | – | – | – | – | – | – | – |
